Biological target: T1, β-secretase (BACE) (Homo sapiens, UniProt P56817)
T1 construct: purchased Panvera
Assay: BACE FS1% Inhibition Assay (Example 160)
Type: biochemical
Protocol: The following reagents were used in this assay: sodium acetate, PEB8000 (Sigma), DMSO, HEPES, FS1 substrate [[…]], β-secretase (BACE) (Panvera), and 96-well plate (HE microplate, Molecular Devices). […] The FS1-substrate stock solution was prepared in DMSO as a 10 mg/mL solution. The FS1-substrate working solution was prepared by diluting the 10 mg/mL stock solution with substrate assay buffer to a final concentration of 300 μg/mL. The β-secretase (BACE) working solution was prepared by diluting a 0.83 mg/mL BACE stock solution with enzyme assay buffer to a final concentration of 4 μg/mL. Test compounds were dissolved in DMSO to 10 mM. […] The screening procedure for this assay was as follows: 15 μL of BACE working solution was pipetted into each well of a 96-well plate. To each well was the pipetted 2 μL of test compound at the selected concentration. Test compound and BACE were then mixed with a pipettor and incubated for 20 min at room temperature. To each well was then added 10 μL of the FS1 substrate working solution. The plates were then incubated for 1 hour at room temperature. […] The procedure for the blank was as follows. 15 μL of assay buffer was pipetted into each well to be used as a blank control. To each well was then added 2 μL of vehicle and 10 μL of FS1-substrate working solution. The plates were then incubated for 1 hour at room temperature. […] The procedure for the positive control was as follows: 15 μL of BACE working solution was pipetted into each well to be used as a positive control. To each well was then pipetted 2 μL of vehicle. Vehicle and BACE were then mixed with a pipettor and incubated for 20 min at room temperature. To each well was then added 10 μL of the FS1 substrate working solution. The plates were then incubated for 1 hour at room temperature. […] For test compounds, % inhibition was determined at each concentration as follows: [formula]

T1 sequence (P56817 46-501): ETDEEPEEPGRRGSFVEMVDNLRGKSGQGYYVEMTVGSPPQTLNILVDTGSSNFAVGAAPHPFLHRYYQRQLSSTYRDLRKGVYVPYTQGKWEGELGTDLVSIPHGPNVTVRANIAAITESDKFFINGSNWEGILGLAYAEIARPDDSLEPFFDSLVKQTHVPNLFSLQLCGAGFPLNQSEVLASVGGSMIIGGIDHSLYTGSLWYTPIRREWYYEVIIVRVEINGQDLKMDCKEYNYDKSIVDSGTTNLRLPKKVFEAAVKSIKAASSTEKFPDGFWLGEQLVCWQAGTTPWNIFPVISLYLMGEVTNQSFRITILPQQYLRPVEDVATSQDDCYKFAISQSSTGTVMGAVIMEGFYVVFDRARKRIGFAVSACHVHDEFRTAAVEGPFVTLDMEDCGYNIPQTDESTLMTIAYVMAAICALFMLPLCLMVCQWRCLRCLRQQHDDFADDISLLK

Row | % Inhibition (FS) (0.3 μM test compound) [%] | % Inhibition (FS) (1 μM test compound) [%] | % Inhibition (FS) (3 μM test compound) [%] | % Inhibition (FS) (0.3 μM test compound, 0.3 µM) [%] | % Inhibition (FS) (1 μM test compound, 1 µM) [%] | % Inhibition (FS) (3 μM test compound, 3 µM) [%] | SMILES
1 | <30 | 30 |  |  |  |  | COc1ccccc1-c1ccc2c(c1)CN([C@@H](CCC(=O)N(C)Cc1cc(C)no1)C1CCCCC1)C(N)=N2 [Compound 718]
2 | 31 | <30 | 81 |  |  |  | COc1ccccc1-c1ccc2c(c1)CN([C@@H](CCC(=O)N(C)Cc1cc(-c3ccccc3)on1)C1CCCCC1)C(N)=N2 [Compound 719]
3 | 33 | 74 | 126 |  |  |  | CN(CCC#N)C(=O)CC[C@@H](C1CCCCC1)N1Cc2cc(-c3ccccc3F)ccc2N=C1N [Compound 725]
4 | 46 | 80 |  |  |  |  | CN(CCc1ccccc1)C(=O)CC[C@@H](C1CCCCC1)N1Cc2cc(-c3ccccc3F)ccc2N=C1N [Compound 727]
5 |  |  |  | 22 | 34 | 97 | CCOC(=O)C1CCC(N(C)C(=O)CCC(C2CCCCC2)N2Cc3cc(Oc4ccccc4)ccc3N=C2N)CC1 (centres unmarked) [Compound 737]
6 | 14 | 28 | 61 |  |  |  | CN(C(=O)CCC(C)(C)N1Cc2cc(Oc3ccccc3)ccc2N=C1N)C1CCCCC1 [Compound 738]
7 | −48 | −38 | −25 |  |  |  | CN(C(=O)CCC(C1CCCCC1)N1Cc2cc(Oc3ccccc3)ccc2N=C1N)C1(C(=O)O)CCCCC1 (centres unmarked) [Compound 741]
8 |  |  | 130 |  |  |  | CN(C(=O)CCC(C1CCOCC1)N1Cc2cc(Oc3ccccc3)ccc2N=C1N)C1CCC(C(=O)O)CC1 (centres unmarked) [Compound 743]
9 | 85 | 104 | 112 |  |  |  | CN(C(=O)CC[C@@H](C1CCOCC1)N1Cc2cc(Oc3ccccc3)ccc2N=C1N)[C@H]1CC[C@H](C(=O)O)CC1 [Compound 746]
10 | 8 | 35 | 89 |  |  |  | CN(C(=O)CC[C@@H](C1CCCCC1)N1Cc2ccc(Oc3ccccc3)cc2N=C1N)C1CCCCC1 [Compound 754]
11 | <30 | 44 | 89 |  |  |  | CN(C(=O)CCC(C1CCCCC1)N1Cc2cc(Oc3ccccc3)ccc2N=C1N)C1CCC(C(=O)OCc2ccccc2)CC1 (centres unmarked) [Compound 760]
12 |  |  |  | <30 | 84 |  | CCOC(=O)C1CCC(N(C)C(=O)CCC(C2CCCCC2)N2Cc3cc(Oc4ccccc4)ccc3N=C2N)CC1 (centres unmarked) [Compound 763]
13 | <30 | 56 | 97 |  |  |  | CNC(=O)C1CCC(N(C)C(=O)CCC(C2CCCCC2)N2Cc3cc(Oc4ccccc4)ccc3N=C2N)CC1 (centres unmarked) [Compound 765]
14 | <30 | <30 | <30 |  |  |  | CN(C(=O)CCC(C1CCCCC1)N1Cc2cc(Oc3ccccc3)ccc2N=C1N)c1ccc(C(=O)O)cc1 (centres unmarked) [Compound 766]
15 | <30 | 71 |  |  |  |  | CN(CC(=O)O)C(=O)CCC(C1CCCCC1)N1Cc2cc(Oc3ccccc3)ccc2N=C1N (centres unmarked) [Compound 767]
16 | <30 | 61 |  |  |  |  | CN(C(=O)CCC(C1CCCCC1)N1Cc2cc(Oc3ccccc3)ccc2N=C1N)C1CCC(C#N)CC1 (centres unmarked) [Compound 769]
17 | <30 | <30 | <30 |  |  |  | CN(C(=O)CCC(C1CCCCC1)N1Cc2cc(Oc3ccccc3)ccc2N=C1N)C1CCC(c2nn[nH]n2)CC1 (centres unmarked) [Compound 770]
18 | <30 | 62 |  |  |  |  | COC(=O)Cc1cccc(CN(C)C(=O)CCC(C2CCCCC2)N2Cc3cc(Oc4ccccc4)ccc3N=C2N)c1 (centres unmarked) [Compound 775]
19 | <30 | 77 |  |  |  |  | CN(Cc1cccc(CC(=O)O)c1)C(=O)CCC(C1CCCCC1)N1Cc2cc(Oc3ccccc3)ccc2N=C1N (centres unmarked) [Compound 778]
20 | 69 | 97 |  |  |  |  | COC(=O)C(COCc1ccccc1)N(C)C(=O)CCC(C1CCCCC1)N1Cc2cc(Oc3ccccc3)ccc2N=C1N (centres unmarked) [Compound 780]
21 | 97 |  |  |  |  |  | COC(=O)[C@H](COCc1ccccc1)N(C)C(=O)CC[C@@H](C1CCOCC1)N1Cc2cc(Oc3ccccc3)ccc2N=C1N [Compound 786]

The next lines start with the molecule.

Row | SMILES | % Inhibition (FS) (0.3 μM test compound) [%] | % Inhibition (FS) (1 μM test compound) [%] | % Inhibition (FS) (3 μM test compound) [%] | % Inhibition (FS) (0.3 μM test compound, 0.3 µM) [%] | % Inhibition (FS) (1 μM test compound, 1 µM) [%] | % Inhibition (FS) (3 μM test compound, 3 µM) [%]
22 | Cc1ccccc1-c1ccc2c(c1)CN(CCNC(=O)C1CCC(C(F)(F)F)CC1)C(N)=N2 (centres unmarked) [Compound 694] | <30 | <30 | 84 |  |  | 
23 | CC(=O)N1CCC(C(=O)NCCN2Cc3cc(-c4ccccc4C)ccc3N=C2N)CC1 [Compound 695] | <30 | <30 | 54 |  |  | 
24 | COC1CCCC(C(=O)NCCN2Cc3cc(-c4ccccc4C)ccc3N=C2N)C1 (centres unmarked) [Compound 696] | <30 | 72 |  |  |  | 
25 | COc1ccccc1-c1ccc2c(c1)CN(CCNC(=O)C1CCOCC1)C(N)=N2 [Compound 697] | <30 | <30 | 63 |  |  | 
26 | COc1ccccc1-c1ccc2c(c1)CN(CCNC(=O)C1CCC(C(F)(F)F)CC1)C(N)=N2 (centres unmarked) [Compound 698] | <30 | <30 | 64 |  |  | 
27 | COc1cccc(F)c1-c1ccc2c(c1)CN(CCNC(=O)C1CCOCC1)C(N)=N2 [Compound 699] | 31 | 64 | 93 |  |  | 
28 | COc1cccc(F)c1-c1ccc2c(c1)CN(CCNC(=O)C1CCC(C(F)(F)F)CC1)C(N)=N2 (centres unmarked) [Compound 700] | <30 | 36 | 85 |  |  | 
29 | NC1=Nc2ccc(-c3ccccc3)cc2CN1CCNC(=O)C1CCC(C(F)(F)F)CC1 (centres unmarked) [Compound 701] | <30 | <30 | 54 |  |  | 
30 | CC(=O)N1CCC(C(=O)NCCN2Cc3cc(-c4ccccc4)ccc3N=C2N)CC1 [Compound 702] | <30 | <30 | <30 |  |  | 
31 | COC1CCCC(C(=O)NCCN2Cc3cc(-c4ccccc4)ccc3N=C2N)C1 (centres unmarked) [Compound 703] | <30 | 46 | 83 |  |  | 
32 | NC1=Nc2ccc(C3=CCCCC3)cc2CN1CCNC(=O)C1CCC(C(F)(F)F)CC1 (centres unmarked) [Compound 704] | <30 | <30 | <30 |  |  | 
33 | CC(=O)N1CCC(C(=O)NCCN2Cc3cc(C4=CCCCC4)ccc3N=C2N)CC1 [Compound 705] | <30 | <30 | <30 |  |  | 
34 | COC1CCCC(C(=O)NCCN2Cc3cc(C4=CCCC4)ccc3N=C2N)C1 (centres unmarked) [Compound 706] | <30 | <30 | <30 |  |  | 
35 | NC1=Nc2ccc(C3=CCCC3)cc2CN1CCNC(=O)C1CCC(C(F)(F)F)CC1 (centres unmarked) [Compound 707] | <30 | <30 | <30 |  |  | 
36 | COc1ccccc1-c1ccc2c(c1)CN([C@@H](CCC(=O)N(C)Cc1csc(-c3ccccc3)n1)C1CCCCC1)C(N)=N2 [Compound 716] | <30 | <30 | 72 |  |  | 
37 | COc1ccccc1-c1ccc2c(c1)CN([C@@H](CCC(=O)N(C)Cc1cnn(-c3ccccc3)c1)C1CCCCC1)C(N)=N2 [Compound 717] | 33 | 39 | 72 |  |  | 
38 | CN(Cc1csc(-c2ccccc2)n1)C(=O)CC[C@@H](C1CCCCC1)N1Cc2cc(-c3ccccc3F)ccc2N=C1N [Compound 722] | 35 | 35 | 78 |  |  | 
39 | CN(Cc1cc(-c2ccccc2)on1)C(=O)CC[C@@H](C1CCCCC1)N1Cc2cc(-c3ccccc3F)ccc2N=C1N [Compound 724] | 38 | <30 | 65 |  |  | 
